Measured values reported in the NIST ThermoML archive (doi:10.1021/acs.jced.7b00393).
Numbers after ± are expanded uncertainties.

How the values were obtained:
[1] = refractive index (Na D-line) (dimensionless); wn = mass fraction of the nth substance listed; conditions: 81.5 kPa, Liquid, Standard Abbe refractometry
[2] = refractive index (Na D-line) (dimensionless); conditions: 298.2 K; 101.33 kPa; Liquid; Standard Abbe refractometry
[3] = 298.2 K; 101.33 kPa; Liquid; Vibrating tube method

SMILES	refractive index ([1]; 293.2 K, w2 = 0.0006)	refractive index ([1]; 293.2 K, w2 = 0.9998)	refractive index ([1]; 298.2 K, w2 = 0.0009)	refractive index ([1]; 298.2 K, w2 = 0.9996)	refractive index ([1]; 308.2 K, w2 = 0.0011)	refractive index ([1]; 308.2 K, w2 = 0.9994)	refractive index [2]	mass density [3] [kg/m3]
CC(C)c1ccccc1 [isopropylbenzene] + O	1.4915 ± 0.0014	1.3335 ± 0.0014	1.49001 ± 0.0014	1.333 ± 0.0014	1.4859 ± 0.0014	1.33195 ± 0.0014	–	–
O [water]	–	–	–	–	–	–	1.3325 ± 0.0014	–
CC(C)c1ccccc1 [isopropylbenzene]	–	–	–	–	–	–	1.49005 ± 0.0014	857.54 ± 1.7
